The subject of one assay is SH-SY5Y cells. The assay can be described thus: sAPPβ release assay.
For a further assay, the target named is T1, Human BACE2 (Homo sapiens, UniProt Q9Y5Z0).
T1 construct: the soluble part of the human β-Secretase2 (AA1-AA473) was cloned using BACE2(1-473)-(AVT)-Fc-pDEST12.2 mammalian expression vector; AVT linker (C); made in house
T1 sequence (Q9Y5Z0 21-473): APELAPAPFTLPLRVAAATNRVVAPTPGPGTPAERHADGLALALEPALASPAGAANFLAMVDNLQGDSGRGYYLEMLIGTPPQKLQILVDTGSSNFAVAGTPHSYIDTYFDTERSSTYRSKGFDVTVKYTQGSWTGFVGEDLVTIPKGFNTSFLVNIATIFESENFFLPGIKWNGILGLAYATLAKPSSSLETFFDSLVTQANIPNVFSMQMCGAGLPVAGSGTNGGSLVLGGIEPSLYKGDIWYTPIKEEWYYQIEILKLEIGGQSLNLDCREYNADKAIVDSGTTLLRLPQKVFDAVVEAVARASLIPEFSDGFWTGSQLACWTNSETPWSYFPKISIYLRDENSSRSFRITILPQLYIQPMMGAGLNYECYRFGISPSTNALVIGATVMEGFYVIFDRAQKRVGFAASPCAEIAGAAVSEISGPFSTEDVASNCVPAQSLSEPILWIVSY
The assay can be described thus: TR-FRET assay. Format: biochemical. As to conditions: substrate 100 nM, pH4.5.

Another assay addresses T2, Human BACE1 (Homo sapiens, UniProt P56817).
T2 construct: the soluble part of the human β-Secretase1 (AA1-AA460) was cloned using the BACE1(1-460)-(AVT)-Fc-pGEN-IRES-neo mammalian expression vector; AVT linker (C); made in house
The assay can be described thus: Diluted TR-FRET assay. Format: biochemical. The following applies: 50 times less enzyme, 6.5 h reaction time at r.t.; read-out: IC50 BACE1 (dil. TR-FRET). The essentials: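 Human BACE1 (residues 1-460) was fused to an IgG1 Fc affinity tag and stably expressed in HEK 293 cells. Using a Multidrop Combi, 7 μL enzyme was added to 0.8 μL compound in dimethylsulphoxide and incubated 10 minutes. Reactions were stopped with 5.5 μL NaOAC Stop solution (pH 9), and TR-FRET fluorescence was read on a Pherastar HTRF module.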

Where [1] appears, read: Homo sapiens, SH-SY5Y, read-out: IC50 Cell (sAPPβ release, nM), SH-SY5Y cells, compounds incubated 16-17 h.

Where two headings read alike, the source gives them in different places.

T2 sequence (P56817 22-460): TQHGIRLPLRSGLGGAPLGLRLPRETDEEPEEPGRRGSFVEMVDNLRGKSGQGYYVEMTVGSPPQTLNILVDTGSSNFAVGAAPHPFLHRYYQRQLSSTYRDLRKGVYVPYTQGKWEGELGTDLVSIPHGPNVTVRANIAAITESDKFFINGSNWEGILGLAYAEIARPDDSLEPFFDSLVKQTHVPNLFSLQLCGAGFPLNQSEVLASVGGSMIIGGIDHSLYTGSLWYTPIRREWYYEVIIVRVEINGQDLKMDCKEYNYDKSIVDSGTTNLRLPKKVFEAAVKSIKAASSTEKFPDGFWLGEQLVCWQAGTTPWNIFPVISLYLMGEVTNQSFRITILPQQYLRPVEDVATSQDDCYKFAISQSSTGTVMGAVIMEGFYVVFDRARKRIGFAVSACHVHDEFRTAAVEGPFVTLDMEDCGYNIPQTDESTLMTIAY
Experimental for SH-SY5Y cells: Cells were thawed and seeded at a concentration of around 10000 cells/well in DMEM/F-12 with Glutamax, 10% FCS and 1% non-essential amino acids to a 384-well tissue culture treated plate, 30 μL cell susp/well. The cell plates were then incubated for 7-24 h at 37° C., 5% CO2.
The cell medium was removed, followed by addition of 50 μL compound diluted in DMEM/F-12 with Glutamax, 10% FCS, 1% non-essential amino acids to a final cone of 0.5% DMSO. The compounds were incubated with the cells for 16-17 h (overnight) at 37° C., 5% CO2.
Meso Scale Discovery (MSD) plates were used for the detection of sAPP release. MSD sAPPβ plates were blocked in 1% BSA in Tris wash buffer for 1 h on shake at r.t. and washed 1 time in Tris wash buffer. […] The MSD plates were incubated with shaking at r.t. for 2 h and the media discarded. 10 μL detection antibody was added (1 nM) per well followed by incubation with shaking at r.t. for 2 h and then discarded. 35 μL Read Buffer was added per well and the plates were read in a Meso Scale Discovery SECTOR6000 Imager.

Consider `[2H]C1([2H])OC(N)=N[C@]12c1cc(-c3cncc(C)c3)ccc1C[C@]21CC[C@@H](OC)[C@H](C)C1` [Compound 20, (1R,1′R,3R,4R)-4-methoxy-3-methyl-6′-(5-methylpyridin-3-yl)-3′H,5″H-dispiro[cyclohexane-1,2′-indene-1′,4″-oxazol]-5″,5″-d2-2″-amine], for which the results for the half-inhibitory concentration (IC50) with SH-SY5Y cells (setting [1]), at Human BACE2 (enzyme 2.7 μg/mL) and on Human BACE1 were 2.9 nM, 186 nM and 143 nM, respectively.

In the case of `[2H]C1([2H])OC(N)=NC12c1cc(-c3cc(C#N)cc(OC)c3)ccc1C[C@@]21CC[C@H](O)[C@@H](C)C1` (stereo partly drawn) [Compound 49, 3-((1S,3S,4S)-2″-amino-4-hydroxy-3-methyl-3′H,5″H-dispiro[cyclohexane-1,2′-indene-1′,4″-oxazol]-6′-yl-5″,5″-d2)-5-methoxybenzonitrile], the IC50 in the assay with SH-SY5Y cells (setting [1]) stood at 15.8 nM; against Human BACE2 (enzyme 2.7 μg/mL), 69 nM; on Human BACE1, 166 nM.

Regarding `[2H]C1([2H])OC(N)=N[C@]12c1cc(-c3cncnc3C)ccc1C[C@@]21CC[C@H](OC)[C@@H](C)C1` [Compound 70, (1S,1′R,3S,4S)-4-methoxy-3-methyl-6′-(4-methylpyrimidin-5-yl)-3′H,5″H-dispiro[cyclohexane-1,2′-indene-1′,4″-oxazol]-5″,5″-d2-2″-amine], the IC50 in the assay with SH-SY5Y cells (setting [1]) was 26.6 nM; against Human BACE2 (enzyme 2.7 μg/mL), above 5000 nM; on Human BACE1, 1130 nM.

Take `COCCC1(C)Cc2ccc(-c3cc(C#N)cc(OC)c3)cc2C12COC(N)=N2` (stereo not drawn) [Compound 93, 3-(2′-amino-2-(2-methoxyethyl)-2-methyl-2,3-dihydro-5′H-spiro[indene-1,4′-oxazol]-6-yl)-5-methoxybenzonitrile]: the IC50 is 561 nM with SH-SY5Y cells (setting [1]), 1210 nM against Human BACE2 (enzyme 2.7 μg/mL) and above 5000 nM on Human BACE1.

On to `COCCCC1(C)Cc2ccc(-c3cc(C#N)cc(OC)c3)cc2C12COC(N)=N2` (stereo not drawn) [Compound 88, 3-(2′-amino-2-(3-methoxypropyl)-2-methyl-2,3-dihydro-5′H-spiro[indene-1,4′-oxazol]-6-yl)-5-methoxybenzonitrile], for which the half-maximal inhibitory concentration (IC50) came to 450 nM in the assay on SH-SY5Y cells (setting [1]), 340 nM at Human BACE2 (enzyme 2.7 μg/mL) and 1950 nM on Human BACE1.

Take `NC1=NC2(CO1)c1cc(-c3cncnc3)ccc1CC2C1CCOCC1` (stereo not drawn) [Compound 94, 6-(pyrimidin-5-yl)-2-(tetrahydro-2H-pyran-4-yl)-2,3-dihydro-5′H-spiro[indene-1,4′-oxazol]-2′-amine]: the IC50 in the assay on SH-SY5Y cells (setting [1]) is 331 nM; against Human BACE2 (enzyme 2.7 μg/mL), 701 nM; at Human BACE1, 4660 nM.

Consider “(1′R,4′S)-4′-methoxy-6″-(pyridin-3-yl)-3″H,5′″H-trispiro[cyclopropane-1,3′-cyclohexane-1′,2″-indene-1″,4′″-oxazol]-5′″,5′″-d2-2′″-amine and (1′S,4′R)-4′-methoxy-6″-(pyridin-3-yl)-3″H,5′″H-trispiro[cyclopropane-1,3′-cyclohexane-1′,2″-indene-1″,4′″-oxazol]-5′″,5′″-d2-2′″-amine [Compound 87]”, for which the half-inhibitory concentration (IC50) in the assay with SH-SY5Y cells (read-out: IC50 Cell (sAPPβ release), SH-SY5Y cells, compounds incubated 16-17 h) was determined as 4.7 nM; against Human BACE2 (enzyme […]), 3480 nM; at Human BACE1, 262 nM.

For `[2H]C1([2H])CC2(N=C(N)O1)c1cc(-c3cc(C#N)cc(OC)c3)ccc1C[C@]21CC[C@@H](OC)CC1` (stereo partly drawn) [Compound 85, 3-((1r,4r)-2″-amino-4-methoxy-5″,6″-dihydro-3′H-dispiro[cyclohexane-1,2′-indene-1′,4″-[1,3]oxazin]-6′-yl-6″,6″-d2)-5-methoxybenzonitrile], the half-maximal inhibitory concentration (IC50) with SH-SY5Y cells (setting [1]) came to 3.5 nM; on Human BACE2 (enzyme 2.7 μg/mL) it was 62.5 nM; on Human BACE1, 31.8 nM.

Regarding `CO[C@H]1CC[C@]2(CC1)Cc1ccc(C#CC(C)C)cc1C21COC(N)=N1` (stereo partly drawn) [Compound 12, (1r,4r)-4-methoxy-6′-(3-methylbut-1-yn-1-yl)-3′H,5″H-dispiro[cyclohexane-1,2′-indene-1′,4″-oxazol]-2″-amine], the IC50 in the assay on SH-SY5Y cells (setting [1]) amounted to 5.9 nM; on Human BACE2 (enzyme 2.7 μg/mL), 128 nM; at Human BACE1, 135 nM.

For the compound `COCCCC1Cc2ccc(-c3cc(C#N)cc(OC)c3)cc2C12COC(N)=N2` (stereo not drawn) [Compound 90, 3-(2′-amino-2-(3-methoxypropyl)-2,3-dihydro-5′H-spiro[indene-1,4′-oxazol]-6-yl)-5-methoxybenzonitrile], the IC50 in the assay with SH-SY5Y cells (setting [1]) is 715 nM; on Human BACE2 (enzyme 2.7 μg/mL), above 5000 nM; at Human BACE1, above 5000 nM.

On to `[2H]C([2H])([2H])O[C@H]1CC[C@@]2(Cc3ccc(-c4cc(Cl)cnc4F)cc3[C@]23N=C(N)OC3([2H])[2H])C[C@@H]1C` [Compound 103, {(1S,1′R,3S,4S)-6′-(2-fluoro-5-chloropyridin-3-yl)-4-(methoxy-d3)-3-methyl-3′H,5″H-dispiro[cyclohexane-1,2′-indene-1′,4″-oxazol]-5″,5″-d2-2″-amine}], for which the values for the half-maximal inhibitory concentration (IC50) with SH-SY5Y cells (setting [1]), against Human BACE2 (enzyme 2.7 μg/mL) and on Human BACE1 were 0.6 nM, 55 nM and 22 nM, respectively.

As for `CO[C@H]1CC[C@]2(CC1)Cc1ccc(-c3cccnn3)cc1C21COC(N)=N1` (stereo partly drawn) [Compound 59, (1r,4r)-4-methoxy-6′-(pyridazin-3-yl)-3′H,5″H-dispiro[cyclohexane-1,2′-indene-1′,4″-oxazol]-2″-amine], the IC50 in the assay on SH-SY5Y cells (setting [1]) was found to be 128 nM; at Human BACE2 (enzyme 2.7 μg/mL) it was 4990 nM; at Human BACE1, 2250 nM.

Take `[2H]C1([2H])OC(N)=NC12c1cc(-c3cc(Cl)cc(C#N)c3)ccc1C[C@@]21C[C@@H](C)[C@H](OC)[C@@H](C)C1` (stereo partly drawn) [Compound 39, 3-((1r,3R,4r,5S)-2″-amino-4-methoxy-3,5-dimethyl-3′H,5″H-dispiro[cyclohexane-1,2′-indene-1′,4″-oxazol]-6′-yl-5″,5″-d2)-5-chlorobenzonitrile]: the half-inhibitory concentration (IC50) in the assay with SH-SY5Y cells (setting [1]) was 4.3 nM; against Human BACE2 (enzyme 2.7 μg/mL) it was 50.7 nM; on Human BACE1 it was 4.7 nM.

With `[2H]C1([2H])OC(N)=NC12c1cc(-c3cncc(C)c3)ccc1C[C@@]21CC[C@H](OC)[C@@H](C)C1` (stereo partly drawn) [Compound 21, (1S,3S,4S)-4-methoxy-3-methyl-6′-(5-methylpyridin-3-yl)-3′H,5″H-dispiro[cyclohexane-1,2′-indene-1′,4″-oxazol]-5″,5″-d2-2″-amine], the IC50 in the assay with SH-SY5Y cells (setting [1]) came out at 1.6 nM; at Human BACE2 (enzyme 2.7 μg/mL) it was 256 nM; on Human BACE1 it was 67 nM.

Consider `[2H]C1([2H])OC(N)=N[C@]12c1cc(-c3cccc(Cl)c3)ccc1C[C@@]21CC[C@H](OC)[C@@H](C)C1` [Compound 27], for which the 50% inhibitory concentration (IC50) in the assay on SH-SY5Y cells (setting [1]) stood at 2.8 nM; at Human BACE2 (enzyme 2.7 μg/mL), 24.7 nM; at Human BACE1, 12 nM.

As for `CC#Cc1cncc(-c2ccc3c(c2)C2(COC(N)=N2)C(N2CCOCC2)C3)c1` (stereo not drawn) [Compound 99, 2-morpholino-6-(5-(prop-1-yn-1-yl)pyridin-3-yl)-2,3-dihydro-5′H-spiro[indene-1,4′-oxazol]-2′-amine], the IC50 turned out to be 489 nM in the assay with SH-SY5Y cells (setting [1]), 519 nM on Human BACE2 (enzyme 2.7 μg/mL) and 3190 nM at Human BACE1.

In the case of `[2H]C([2H])([2H])O[C@H]1CC[C@@]2(Cc3ccc(-c4cnccn4)cc3[C@]23N=C(N)OC3([2H])[2H])C[C@@H]1C` [Compound 72, (1S,1′R,3S,4S)-4-(methoxy-d3)-3-methyl-6′-(pyrazin-2-yl)-3′H,5″H-dispiro[cyclohexane-1,2′-indene-1′,4″-oxazol]-5″,5″-d2-2″-amine], the IC50 in the assay with SH-SY5Y cells (setting [1]) was 3.6 nM; against Human BACE2 (enzyme 2.7 μg/mL) it was above 5000 nM; on Human BACE1 it was 203 nM.

As for `[2H]C1([2H])CC2(N=C(N)O1)c1cc(-c3cncc(C#N)c3)ccc1C[C@]21CC[C@@H](OC)CC1` (stereo partly drawn) [Compound 84, 5-((1r,4r)-2″-amino-4-methoxy-5″,6″-dihydro-3′H-dispiro[cyclohexane-1,2′-indene-1′,4″-[1,3]oxazin]-6′-yl-6″,6″-d2)nicotinonitrile], the concentration for half-maximal inhibition (IC50) in the assay with SH-SY5Y cells (setting [1]) stood at 4.8 nM; at Human BACE2 (enzyme 2.7 μg/mL), 103 nM; on Human BACE1, 88.7 nM.

Take `[2H]C1([2H])OC(N)=NC12c1cc(C([2H])([2H])C([2H])([2H])C(C)C)ccc1C[C@@]21C[C@@H](C)[C@H](OC)[C@@H](C)C1` (stereo partly drawn) [Compound 40, (1r,3R,4r,5S)-4-methoxy-3,5-dimethyl-6′-(3-methylbutyl-1,1,2,2-d4)-3′H,5″H-dispiro[cyclohexane-1,2′-indene-1′,4″-oxazol]-5″,5″-d2-2″-amine]: the IC50 in the assay with SH-SY5Y cells (setting [1]) amounted to 4.4 nM; at Human BACE2 (enzyme 2.7 μg/mL) it was 118 nM; at Human BACE1, 32.9 nM.

Take `[2H]C1([2H])OC(N)=NC12c1cc(-c3cncc(Cl)c3)ccc1C[C@]21CC[C@@H](OC)CC1` (stereo partly drawn) [Compound 16, (1r,4r)-6′-(5-chloropyridin-3-yl)-4-methoxy-3′H,5″H-dispiro[cyclohexane-1,2′-indene-1′,4″-oxazol]-5″,5″-d2-2″-amine]: the concentration for half-maximal inhibition (IC50) in the assay with SH-SY5Y cells (setting [1]) was 3.8 nM; against Human BACE2 (enzyme 2.7 μg/mL), 105 nM; on Human BACE1, 128 nM.

The record behind these values is patent US10053453B2, “Compounds and their use as BACE inhibitors” (AstraZeneca AB, priority 2014, dated 2018).
